Experimental data published in the supplement of paper PMC8882468.

Assays:
Experiment in all cases: CTG-3D luminescence at 96 h relative to day-0 seeding control (ratio to day 0); higher = more growth / less cytotoxicity; PDxO 3D drug screen (set 2), 96 h, CTG-3D normalised to day-0 seeding control.
[1] = tested on: HCI-019 (organoid from a triple-negative breast cancer xenograft)
[2] = tested on: HCI-015 (organoid from a triple-negative breast cancer xenograft)
[3] = tested on: HCI-008 (organoid from a HER2-enriched breast cancer xenograft)
[4] = tested on: HCI-027 (organoid from a triple-negative breast cancer xenograft)
[5] = tested on: HCI-025 (organoid from a breast cancer xenograft)

CCOc1ccn(-c2ccc(F)cc2)c(=O)c1C(=O)Nc1ccc(Oc2ccnc(N)c2Cl)c(F)c1 [ASLAN002]
CTG-3D luminescence at 96 h
Conditions	12.5 pM	0.00025 µM	0.005 µM	0.1 µM	1 µM	10 µM	100 µM	625 fM
[1], days in culture: 173	2.03	1.61	1.52	3.51	1.6	1.16	1.12	1.28
[1], days in culture: 194	1.11	1.59	0.978	1.46	0.851	0.875	1.1	1.75
[1], days in culture: 215	1.3	0.756	1.22	1.28	2.09	0.724	0.591	1.91
[2], days in culture: 333	1.68	1.64	0.866	1.08	0.841	0.711	0.501	1.57
[2], days in culture: 355	1.87	3.41	1.5	1.76	1.71	2.18	0.883	2.05
[2], days in culture: 369	2.27	1.62	2.12	1.97	2.23	1.38	1.18	1.94
[3], days in culture: 325	1.03	2.2	2.46	3.53	3.54	2.48	1.08	2.16
[3], days in culture: 340	0.543	2.27	1.52	1.76	1.83	–	0.867	0.758
[3], days in culture: 354	1.38	1.4	2.81	1.45	1.54	0.917	0.857	1.08
[3], days in culture: 382	1.45	1.54	1.29	1.09	0.767	1.78	0.377	1.52
[4], days in culture: 145	1.36	2.38	1.99	2.27	1.53	1.16	0.692	1.71
[4], days in culture: 158	2.07	1.82	2.16	2.7	1.65	2.11	1.35	4.78
[4], days in culture: 164	1.59	1.98	3.29	1.48	1.84	1.29	0.787	1.91
[4], days in culture: 176	3.7	2.85	1.77	1.65	2.11	1.09	0.699	2.39
[4], days in culture: 186	2	1.38	1.53	2.45	0.755	0.892	0.737	2
[5], days in culture: 175	1.55	1.97	1.91	2.81	2.73	2.56	1.7	1.46
[5], days in culture: 189	2.49	2.61	1.96	2.27	2.6	1.72	0.561	2.72
[5], days in culture: 212	1.41	1.8	3.86	1.18	0.524	1.75	0.694	1.16
[5], days in culture: 224	2.08	0.982	2.02	1.32	1.95	1.87	1.18	1.86

CC(=O)O[C@@]12CO[C@@H]1C[C@H](O)[C@@]1(C)C(=O)[C@H](O)C3=C(C)[C@@H](OC(=O)[C@H](O)[C@@H](NC(=O)OC(C)(C)C)c4ccccc4)C[C@@](O)([C@@H](OC(=O)c4ccccc4)[C@H]21)C3(C)C [docetaxel]
CTG-3D luminescence at 96 h
Conditions	12.5 pM	0.00025 µM	0.005 µM	0.1 µM	1 µM	10 µM	100 µM	625 fM
[1], days in culture: 173	1.24	0.84	0.655	1.38	0.99	0.699	0.368	0.768
[1], days in culture: 194	1.66	2.03	0.858	0.59	0.552	0.764	0.27	3.06
[1], days in culture: 215	1.52	0.972	0.281	0.399	0.342	0.484	0.0546	1.59
[2], days in culture: 333	1.1	0.869	0.428	0.469	0.526	0.304	0.0462	0.76
[2], days in culture: 355	1.2	0.928	0.736	0.737	0.975	0.684	0.105	0.757
[2], days in culture: 369	1.06	0.83	0.967	0.721	0.553	0.702	0.176	1.69
[3], days in culture: 325	1.01	1.46	1.35	1.91	2.06	1.53	0.0817	1.14
[3], days in culture: 340	0.747	1.06	1.26	0.976	0.918	–	0.0677	0.77
[3], days in culture: 354	1.16	1.01	1.5	1.16	0.508	1.23	0.211	0.885
[3], days in culture: 382	1.56	1.35	0.719	0.823	0.446	0.547	0.0143	1.74
[4], days in culture: 145	1.01	0.93	0.832	0.862	0.922	0.849	0.15	1.06
[4], days in culture: 158	2.07	2.12	1.05	0.461	1.19	2.61	0.153	3.28
[4], days in culture: 164	2.42	1.32	0.405	0.525	0.555	0.505	0.117	1.04
[4], days in culture: 176	3.89	2.21	0.338	0.629	0.457	0.475	0.0832	2.73
[4], days in culture: 186	1.45	1.25	0.855	0.693	0.469	0.451	0.0466	2.08
[5], days in culture: 175	0.586	0.61	0.547	0.494	0.674	0.771	0.387	0.704
[5], days in culture: 189	0.971	0.89	0.694	1.01	0.76	0.759	0.286	1.74
[5], days in culture: 212	2.49	1.38	0.974	0.822	0.332	0.385	0.187	0.772
[5], days in culture: 224	2.29	2.24	0.853	0.501	0.639	0.685	0.065	1.64

CC(=O)c1c(C)c2cnc(Nc3ccc(N4CCNCC4)cn3)nc2n(C2CCCC2)c1=O [palbociclib]
CTG-3D luminescence at 96 h
Conditions	12.5 pM	0.00025 µM	0.005 µM	0.1 µM	1 µM	10 µM	100 µM	625 fM
[1], days in culture: 173	2.68	2.28	1.24	2.55	2.78	1.39	1.9	2.01
[1], days in culture: 194	3.12	1.02	3.29	2.76	2.08	1.97	1.02	1.43
[1], days in culture: 215	1.93	1.31	2.06	1.48	1.83	1.35	1.38	1.73
[2], days in culture: 333	1.88	1.26	1.44	0.877	0.941	0.44	0.369	1.89
[2], days in culture: 355	3.11	2.44	1.74	3.47	0.976	1.99	0.775	1.74
[2], days in culture: 369	2.19	1.75	2.45	1.9	1.82	1.07	0.742	1.94
[3], days in culture: 325	1.14	1.96	2.03	2.74	3.58	2.05	0.962	1.8
[3], days in culture: 340	0.654	3.19	1.76	2.01	2.37	–	1.18	1.13
[3], days in culture: 354	1.29	1.41	2.34	1	1.11	0.979	1.21	0.693
[3], days in culture: 382	1.83	1.31	1.55	1.83	1.16	1.66	0.974	1.59
[4], days in culture: 145	1.41	2.02	1.64	1.26	1.55	0.841	0.458	1.58
[4], days in culture: 158	1.35	1.77	2.1	1.52	0.941	0.942	0.608	3.32
[4], days in culture: 164	2.57	1.87	1.48	1.63	1.33	1.31	0.892	2.8
[4], days in culture: 176	3.61	2.85	1.73	2.1	1.82	0.641	0.373	2.61
[4], days in culture: 186	1.11	1.93	2.5	2.42	0.412	1.4	0.411	1.67
[5], days in culture: 175	1.84	2.51	1.75	1.97	2.37	2.28	1.24	1.97
[5], days in culture: 189	2.77	1.41	2.23	1.9	1.78	1.42	0.673	3.4
[5], days in culture: 212	2.24	1.43	1.94	1.29	0.809	2.39	2.52	2.45
[5], days in culture: 224	1.84	1.83	1.88	1.26	2	2.17	1.17	1.33
